Where two headings read alike, the source gives them in different places. Residues, ends and D or L forms follow the SMILES beside them.
Experiments:
DR1 = assay: DR1
Excerpt: (§1) Table printed on a drawing sheet, Figure 3
(§2) The patent's description of the figure: FIG. 3 illustrates the binding activity, with respect to the HLA II molecules that are predominant in the Caucasian population, of a second series of peptides of the C and NS3 proteins, derived from the first series. The values correspond to the IC50 values, expressed in nM.
(§3) First copying reader's note: The sheet prints no unit; blank spacer lines between peptide groups are left out, and the Nb head is printed slightly left of its column.; the cell N1056-1070 / DR15 is printed empty.; the cell N1056-1070 / DR15 is printed empty.
Where the first naming reader finds the target: head: DR1

DR4 [1] = assay: DR4
Excerpt: as §1, §2, §3
Where the first naming reader finds the target: head: DR4

DR7 [2] = assay: DR7
Excerpt: as §1, §2, §3
Where the first naming reader finds the target: head: DR7

DRB5 [3] = assay: DRB5
Excerpt: as §1, §2, §3
Where the first naming reader finds the target: head: DRB5

DP401 = assay: DP401
Excerpt: as §1, §2, §3
Where the first naming reader finds the target: head: DP401

DR11 [4] = assay: DR11
Excerpt: as §1, §2, §3
(§4) Where the first naming reader finds the target: head: DR11

DR15 [5] = assay: DR15
Excerpt: as §1, §2, §3
Where the first naming reader finds the target: head: DR15

HLA-DR1 (DRB1*0101) = molecular target: T1, HLA-DR1 (DRB1*0101) (Homo sapiens, UniProt P01903+P01911, A100R/D57E/F55L/F60I/F76Y/I96L/L162R/M171V/P40L/Q125E/R42F/V115G/Y59C); assay: biochemical; type: binding
T1 construct: endogenous in cells; host or cells: homozygous EBV-transformed human B lymphocyte lines; immunopurified with antibody L243

[6] = tested on: splenocytes from mice transgenic for the human HLA-DR1 molecules; assay: Proliferation assay with splenocytes of immunized HLA-DR1 transgenic mice; type: in vivo; settings: 25 μg of single peptide in montanide, subcutaneous, two injections; restimulation 5 μg/ml; FIG. 4A
Method: The ability of the peptides having good affinity for the HLA II molecules, as defined above, to induce an immune response was evaluated by means of an in vitro proliferation assay in mice transgenic for HLA-DR1 molecules (Wilkinson et al., Infect. Immunity, 1999, 67, 1501-; Rosloniec et al., J. Exp. Med., 1997, 185, 1113-), pre-immunized with these peptides.
15 days later, a second injection was given under the same conditions. Ten days after the second injection, the animals were sacrificed and their spleen was removed. The splenocytes were cultured in HL-1 medium (Biowhittaker) supplemented with 1% of mouse serum, in the presence of 5 μg/ml of each of the peptides used for the injection, or in the absence of peptide. After 4 days of culture, 1 μCi of tritiated thymidine (Amersham, Life Technologies) was added for 16 h. The tritiated thymidine incorporation was then measured using a beta-counter (Microbeta 1450, Perkin Elmer). The results are expressed as a proliferation index (number of CPM in the presence of peptide/number of CPM in the absence of peptide).

DR3 = assay: DR3
Excerpt: (§5) Table printed on a drawing sheet, Figure 2
Where the first naming reader finds the target: head: DR3

DR4 [7] = assay: DR4; remark: listed apart in the source
DR7 [8] = assay: DR7; remark: listed apart in the source
DR13 = assay: DR13
Excerpt: as §5
Where the first naming reader finds the target: head: DR13

DR15 [9] = assay: DR15; remark: listed apart in the source
DRB3 = assay: DRB3
DRB4 = assay: DRB4
Excerpt: as §5
Where the first naming reader finds the target: head: DRB4

DRB5 [10] = assay: DRB5; remark: listed apart in the source
DR11 [11] = assay: DR11; remark: listed apart in the source
Excerpt: as §5, §4

Row | Compound | IC50 (DR1) [µM] | IC50 (DR4 [1]) [µM] | IC50 (DR7 [2]) [µM] | IC50 (DRB5 [3]) [µM] | IC50 (DP401) [µM] | IC50 (DR11 [4]) [µM] | IC50 (DR15 [5]) [µM] | IC50 (HLA-DR1 (DRB1*0101); DRB1*0101, competition with biotinylated tracer HA 306-318, read-out: IC50, binding to HLA-DR1) [µM] | affinity for HLA-DR1 (in words) (HLA-DR1 (DRB1*0101); legend of FIG. 4) | immune response (splenocyte proliferation index) [6] | IC50 (DR3) [µM] | IC50 (DR4 [7]) [µM] | IC50 (DR7 [8]) [µM] | IC50 (DR13) [µM] | IC50 (DR15 [9]) [µM] | IC50 (DRB3) [µM] | IC50 (DRB4) [µM] | IC50 (DRB5 [10]) [µM] | IC50 (DR11 [11]) [µM]
1 | GAPLGGAARALAHG [C 141-155] | 3.5 | 80 | 11.8 | 8.33 | 9.49 | 0.49 | 50 | – | – | – | – | – | – | – | – | – | – | – | –
2 | CC(C)C[C@H](NC(=O)[C@H](C)NC(=O)[C@H](CCCNC(=N)N)NC(=O)[C@H](C)N)C(=O)N[C@@H](C)C(=O)N[C@@H](Cc1c[nH]cn1)C(=O)NCC(=O)N[C@H](C(=O)N[C@@H](CCCNC(=N)N)C(=O)N[C@H](C(=O)N[C@@H](CC(C)C)C(=O)N[C@@H](CCC(=O)O)C(=O)N[C@@H](CC(=O)O)C(=O)NCC(=O)N[C@H](C(=O)N[C@@H](CC(N)=O)C(=O)N[C@@H](Cc1ccc(O)cc1)C(=O)N[C@@H](C)C(=O)N[C@H](C(=O)NCC(=O)N[C@@H](CC(N)=O)C(=O)N[C@@H](CC(C)C)C(=O)N1CCC[C@H]1C(=O)NCC(=O)N[C@@H](C)C(=O)N[C@@H](CO)C(=O)O)[C@@H](C)O)C(C)C)C(C)C)C(C)C [6C 148-173] (H-ARALAHGVRVLEDGVNYATGNLPGAS-OH; N-terminus and C-terminus assumed) | – | – | – | – | – | – | – | 10 | low affinity | do not induce any effect | 3.5 | 0.03 | 3.17 | 9.5 | 6.67 | 4.83 | 27.5 | 4.33 | 4.33

— patent US20060110401A1, “Mixture of peptides from c and ns3 proteins of the hepatitis c virus and applications thereof” (priority 2002, published 2006)
